Data as given in the supplement of paper PMC11579375.

Tests used:
Experiment in all cases: area under the viability dose-response curve (AUC) (AUC (arbitrary units, max 500 = no viability loss)); higher = less sensitive (higher viability)
Conditions in all cases: exposure time: 120 h; concentration range: 0.1 nM - 10 µM, 6 doses
10F2 = tested on: 10F2 (fetal-II hepatoblastoma organoid with high liver markers)
Experimental: (§1)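 Patient-derived hepatoblastoma tumor organoids (about 50 organoids per well, 384-well plates, medium with 5% BME) were treated with the PMC pediatric cancer drug library. Each drug was tested in duplicate at 6 concentrations (0.1 nM to 10 µM, 10-fold steps).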

135F2 = tested on: 135F2 (fetal-II hepatoblastoma organoid with high liver markers)
Experimental: as §1

13E = tested on: 13E (embryonal-type hepatoblastoma organoid)
Experimental: as §1

13F2 = tested on: 13F2 (fetal-II hepatoblastoma organoid with high liver markers)
Experimental: as §1

17E = tested on: 17E (embryonal-type hepatoblastoma organoid)
Experimental: as §1

17F1 = tested on: 17F1 (fetal-I hepatoblastoma organoid with intermediate liver markers)
Experimental: as §1

22E = tested on: 22E (embryonal-type hepatoblastoma organoid)
Experimental: as §1

27F1 = tested on: 27F1 (fetal-I hepatoblastoma organoid with intermediate liver markers)
Experimental: as §1

3E = tested on: 3E (embryonal-type hepatoblastoma organoid)
Experimental: as §1

8F1 = tested on: 8F1 (fetal-I hepatoblastoma organoid with intermediate liver markers)
Experimental: as §1

96F1 = tested on: 96F1 (fetal-I hepatoblastoma organoid with intermediate liver markers)
Experimental: as §1

Row | SMILES | area under the viability dose-response curve (10F2) | area under the viability dose-response curve (135F2) | area under the viability dose-response curve (13E) | area under the viability dose-response curve (13F2) | area under the viability dose-response curve (17E) | area under the viability dose-response curve (17F1) | area under the viability dose-response curve (22E) | area under the viability dose-response curve (27F1) | area under the viability dose-response curve (3E) | area under the viability dose-response curve (8F1) | area under the viability dose-response curve (96F1)
1 | Cc1nc(Nc2ncc(C(=O)Nc3c(C)cccc3Cl)s2)cc(N2CCN(CCO)CC2)n1 [Dasatinib] | 473 | 458 | 397 | 379 | 463 | 488 | 461 | 488 | 315 | 473 | 479
2 | C#Cc1cccc(Nc2ncnc3cc(OCCOC)c(OCCOC)cc23)c1 [Erlotinib] | 311 | 469 | 488 | 360 | 448 | 448 | 485 | 423 | 476 | 463 | 415
3 | CCOc1cc2ncc(C#N)c(Nc3ccc(OCc4ccccn4)c(Cl)c3)c2cc1NC(=O)/C=C/CN(C)C [Neratinib] | 234 | 462 | 464 | 319 | 424 | 431 | 453 | 362 | 444 | 449 | 416
4 | Cc1c2c(nn1C)CSCc1cc(n(C)n1)CSc1cc(c3ccccc3c1)OCCCc1c(C(=O)O)n(C)c3c-2c(Cl)ccc13 [AZD5991] | 190 | 379 | 403 | 277 | 370 | 482 | 400 | 473 | 310 | 484 | > 500
5 | C[C@H](NC(=O)CCC(F)(F)F)C(=O)N[C@@H]1C(=O)N(CCO)c2ncccc2-c2ccccc21 [Crenigacestat] | 389 | 479 | 482 | 418 | 482 | > 500 | 474 | 484 | 458 | 498 | 480
6 | CC[C@]1(O)C[C@@H]2CN(CCc3c([nH]c4ccccc34)[C@@](C(=O)OC)(c3cc4c(cc3OC)N(C)[C@H]3[C@@](O)(C(N)=O)[C@H](O)[C@]5(CC)C=CCN6CC[C@]43[C@@H]65)C2)C1 [Vindesine] | 195 | 202 | 204 | 246 | 206 | 239 | 219 | 238 | 170 | 211 | 173
7 | CN/N=N/c1[nH]cnc1C(N)=O [MTIC] | 445 | > 500 | > 500 | 443 | > 500 | > 500 | > 500 | > 500 | > 500 | > 500 | > 500
8 | Nc1ncn([C@H]2C[C@H](O)[C@@H](CO)O2)c(=O)n1 [Decitabine (Guadecitabine)] | 375 | 440 | 485 | 392 | 461 | 466 | 477 | 487 | 453 | 478 | 455
9 | C[C@@H]1COCCN1c1cc(C2([S@](C)(=N)=O)CC2)nc(-c2cc[nH]c3nccc2-3)n1 [Ceralasertib] | 475 | 448 | 468 | 450 | 462 | 478 | 462 | 479 | 442 | > 500 | 450
10 | O=C(c1ccc(F)c(F)c1Nc1ccc(I)cc1F)N1CC(O)([C@@H]2CCCCN2)C1 [Cobimetinib] | 220 | 300 | 429 | 266 | 362 | 438 | 448 | 381 | 372 | 455 | 430
11 | CCNC(=O)C[C@@H]1N=C(c2ccc(Cl)cc2)c2cc(OC)ccc2-n2c(C)nnc21 [Molibresib] | 386 | 417 | 468 | 389 | 400 | 477 | 442 | 498 | 378 | 465 | 497
12 | C=CC(=O)N1CC[C@H](n2nc(C#Cc3cc(OC)cc(OC)c3)c3c(N)ncnc32)C1 [Futibatinib] | 440 | > 500 | 372 | 370 | 323 | > 500 | 425 | > 500 | 236 | 482 | > 500
13 | C[C@]1(O)C[C@@H](c2nc(-c3ccc4ccc(-c5ccccc5)nc4c3)c3c(N)nccn32)C1 [Linsitinib] | 467 | 487 | 405 | 410 | 384 | 492 | 391 | 476 | 374 | 484 | 454
14 | Cn1cnc2c(F)c(Nc3ccc(Br)cc3F)c(C(=O)NOCCO)cc21 [Binimetinib] | 343 | 396 | 490 | 379 | 424 | 458 | 489 | 499 | > 500 | > 500 | 481
15 | COc1ncc(-c2nc3c(n2C(C)C)[C@H](c2ccc(Cl)cc2)N(c2cc(Cl)cn(C)c2=O)C3=O)c(OC)n1 [Siremadlin] | 200 | 328 | 383 | 246 | 318 | 395 | 414 | 359 | 306 | 373 | 385
16 | CCn1cc(-c2cccc(C(F)(F)F)c2)c2sc(C(=N)NC3CCS(=O)(=O)CC3)cc2c1=O [I-BRD9] | > 500 | 471 | 470 | 435 | 461 | 490 | 493 | > 500 | 376 | 459 | 478
17 | S=P(N1CC1)(N1CC1)N1CC1 [ThioTEPA] | 394 | 440 | 483 | 433 | 443 | 488 | 474 | 472 | 400 | 478 | 461
18 | C[C@H](NC(=O)c1c(N)nn2cccnc12)c1cc2cccc(C#Cc3cnn(C)c3)c2c(=O)n1-c1ccccc1 [IPI549] | 459 | > 500 | 463 | 479 | 464 | > 500 | 477 | > 500 | 428 | > 500 | 459
19 | CS(=O)(=O)OCCCCOS(C)(=O)=O [Busulfan] | > 500 | > 500 | 489 | > 500 | > 500 | > 500 | 490 | – | – | – | 485
20 | O=C1c2c(O)ccc(O)c2C(=O)c2c(NCCNCCO)ccc(NCCNCCO)c21 [Mitoxantrone] | 294 | 285 | 274 | 222 | 257 | 319 | 340 | – | 208 | 405 | 313
21 | CN(C)C(=N)NC(=N)N [Metformin] | 469 | > 500 | > 500 | > 500 | > 500 | 482 | > 500 | – | – | – | > 500
22 | Cc1c2oc3c(C)ccc(C(=O)N[C@@H]4C(=O)N[C@H](C(C)C)C(=O)N5CCC[C@H]5C(=O)N(C)CC(=O)N(C)[C@@H](C(C)C)C(=O)O[C@@H]4C)c3nc-2c(C(=O)N[C@@H]2C(=O)N[C@H](C(C)C)C(=O)N3CCC[C@H]3C(=O)N(C)CC(=O)N(C)[C@@H](C(C)C)C(=O)O[C@@H]2C)c(N)c1=O [Actinomycin D] | 160 | 127 | 205 | 114 | 150 | 187 | 215 | – | 134 | 222 | 169
23 | CO[C@H]1C[C@@H]2CC[C@@H](C)[C@@](O)(O2)C(=O)C(=O)N2CCCC[C@H]2C(=O)O[C@H]([C@H](C)C[C@@H]2CC[C@@H](O)[C@H](OC)C2)CC(=O)[C@H](C)/C=C(\C)[C@@H](O)[C@@H](OC)C(=O)[C@H](C)C[C@H](C)/C=C/C=C/C=C/1C [Sirolimus] | 391 | 464 | 389 | 319 | 257 | > 500 | – | > 500 | 249 | 476 | > 500
24 | CC1(C)CCC(CN2CCN(c3ccc(C(=O)NS(=O)(=O)c4ccc(NCC5CCOCC5)c([N+](=O)[O-])c4)c(Oc4cnc5[nH]ccc5c4)c3)CC2)=C(c2ccc(Cl)cc2)C1 [Venetoclax] | 435 | 470 | 456 | 471 | 465 | 468 | – | 464 | 472 | 465 | 461
25 | COCCOc1cnc2ccn([C@H](C)c3nnc4c(F)cc(-c5cnn(C)c5)cn34)c(=O)c2c1 [AMG 337] | 446 | 488 | 488 | 483 | 494 | 495 | > 500 | – | – | – | > 500
26 | COCC1(CO)C(=O)C2CCN1CC2 (stereo unspecified) [APR-246] | > 500 | 495 | > 500 | 487 | 494 | 497 | – | 462 | > 500 | 480 | 499
27 | CCCCCCCCCCCCCCCCCCOP(=O)([O-])OC1CC[N+](C)(C)CC1 [Perifosine] | 470 | – | > 500 | 480 | 499 | > 500 | > 500 | > 500 | > 500 | 482 | –
28 | NC(=O)c1cccc2cn(-c3ccc([C@@H]4CCCNC4)cc3)nc12 [Niraparib] | 459 | 458 | 472 | 455 | 495 | 490 | – | 478 | 461 | > 500 | 492
